We go through two compounds from US20200239530A1, “COMPOUNDS AND METHODS OF MODULATING PROTEIN DEGRADATION” (Vividion Therapeutics, Inc., priority 2017, published 2020).

The assay has as its target T1, POGZ Pogo transposable element with ZNF domain (Homo sapiens, UniProt Q7Z3K3).
T1 construct: Cells were resuspended in cold PBS on ice and sonicated with a probe sonicator to achieve lysis; endogenous in cells
T1 sequence (Q7Z3K3 1-1410): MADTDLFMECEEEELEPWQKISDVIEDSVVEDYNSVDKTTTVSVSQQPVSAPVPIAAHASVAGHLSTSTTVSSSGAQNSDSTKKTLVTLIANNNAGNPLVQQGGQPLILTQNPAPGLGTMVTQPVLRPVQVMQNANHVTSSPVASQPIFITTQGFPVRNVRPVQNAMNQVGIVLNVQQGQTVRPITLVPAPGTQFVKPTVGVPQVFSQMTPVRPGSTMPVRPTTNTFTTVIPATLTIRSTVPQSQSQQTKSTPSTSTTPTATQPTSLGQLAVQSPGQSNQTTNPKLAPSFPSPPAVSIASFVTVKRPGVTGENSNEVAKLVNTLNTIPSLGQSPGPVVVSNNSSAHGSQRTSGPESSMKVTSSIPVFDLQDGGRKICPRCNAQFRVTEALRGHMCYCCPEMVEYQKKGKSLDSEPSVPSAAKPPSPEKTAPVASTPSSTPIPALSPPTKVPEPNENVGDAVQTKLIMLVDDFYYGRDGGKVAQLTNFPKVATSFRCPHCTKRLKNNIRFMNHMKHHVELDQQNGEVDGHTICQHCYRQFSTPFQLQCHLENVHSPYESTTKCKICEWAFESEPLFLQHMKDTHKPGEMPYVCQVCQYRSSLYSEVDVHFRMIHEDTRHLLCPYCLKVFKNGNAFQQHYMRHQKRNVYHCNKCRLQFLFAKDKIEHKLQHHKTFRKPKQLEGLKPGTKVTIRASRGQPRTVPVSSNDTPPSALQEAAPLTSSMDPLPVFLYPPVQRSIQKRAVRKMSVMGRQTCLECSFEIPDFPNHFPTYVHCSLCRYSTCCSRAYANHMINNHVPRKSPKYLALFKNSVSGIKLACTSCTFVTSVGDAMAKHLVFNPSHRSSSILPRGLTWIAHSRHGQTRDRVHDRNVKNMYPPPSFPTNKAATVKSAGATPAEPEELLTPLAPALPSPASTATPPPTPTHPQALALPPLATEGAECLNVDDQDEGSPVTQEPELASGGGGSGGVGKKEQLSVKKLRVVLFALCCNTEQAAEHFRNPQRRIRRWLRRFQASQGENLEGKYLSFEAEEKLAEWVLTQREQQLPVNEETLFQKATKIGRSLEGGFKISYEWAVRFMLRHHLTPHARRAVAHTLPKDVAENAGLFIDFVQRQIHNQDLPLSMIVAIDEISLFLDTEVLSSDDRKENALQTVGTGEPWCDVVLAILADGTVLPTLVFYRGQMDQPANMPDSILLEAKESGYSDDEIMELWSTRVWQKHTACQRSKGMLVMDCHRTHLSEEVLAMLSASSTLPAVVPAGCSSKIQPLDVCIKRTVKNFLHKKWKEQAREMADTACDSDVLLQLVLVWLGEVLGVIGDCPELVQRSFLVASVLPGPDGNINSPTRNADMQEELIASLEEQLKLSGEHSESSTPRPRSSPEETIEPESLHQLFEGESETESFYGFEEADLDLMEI
Briefly: Cysteine liganding, probe competition. In kind it is binding. The gist of the method: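 Lysates from probe-sonicated cells in PBS (5 mg/ml proteome) were exposed to compound for 1 hr at 25° C, then labelled with desthiobiotin iodoacetamide probe (10 mM stock) for 1 hr at 25° C. Probe-tagged peptides were streptavidin-enriched after trypsin digestion.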

On to `COc1ccc2c(c1)CCCN2C(=O)CCl` [KB02], for which the Liganded entry (POGZ Res# 547, uniprot Q7Z3K3) is given as “YES”.

Consider `O=C(CCl)Nc1cc(C(F)(F)F)cc(C(F)(F)F)c1` [KBO3], for which, where the note is “uniprot Q7Z3K3”, the “100 Max” value was 2.21, the 100 ave is −8.9575, the “500 Max” value is given as 15.64 and the 500 ave is on record as 13.995.
